Assay: xn = mol fraction of the nth substance listed
Details: 298.15 K, 101 kPa, Liquid, Taylor dispersion method

C[N+](C)(C)CCCCCCCCCCCC[N+](C)(C)C.[Br-].[Br-] + O
binary diffusion coefficient (x1 = 0): 1.01e-09 m2/s
binary diffusion coefficient (x1 = 0.00119): 9.72e-10 m2/s
binary diffusion coefficient (x1 = 0.00475): 9.45e-10 m2/s
binary diffusion coefficient (x1 = 0.0095): 9.11e-10 m2/s
binary diffusion coefficient (x1 = 0.019): 8.7e-10 m2/s
binary diffusion coefficient (x1 = 0.038): 8.05e-10 m2/s

C[N+](C)(C)CCCCCCCCCC[N+](C)(C)C.[Br-].[Br-] [decamethonium bromide] + O
binary diffusion coefficient (x1 = 0): 1.06e-09 m2/s
binary diffusion coefficient (x1 = 0.00119): 9.9e-10 m2/s
binary diffusion coefficient (x1 = 0.00475): 9.55e-10 m2/s
binary diffusion coefficient (x1 = 0.0095): 9.04e-10 m2/s
binary diffusion coefficient (x1 = 0.019): 8.61e-10 m2/s
binary diffusion coefficient (x1 = 0.038): 8.43e-10 m2/s
